Assay results taken from PubChem BioAssay AID858 (Vanderbilt High Throughput Screening Facility, 2007).
Calls of active or inactive are those of the source.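 The calls were made as follows: active = at least two of three replicate dose series yielding a converging curve fit, whether well or thinly supported; inactive = the rest.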

Target: D(1A) dopamine receptor (Homo sapiens) (UniProt P21728)
Experiment: D1 receptor modulation with EC30 dopamine, dose response, D1 allosteric modulator project, cell-based, CRE-luciferase, HEK293 (AID 858);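 also: HEK 293 cells bearing human D1 receptor stimulated by dopamine at its EC30; luciferase light from a cAMP response element reporter gene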

D(1A) dopamine receptor (Homo sapiens), sequence (P21728 whole entry, looked up): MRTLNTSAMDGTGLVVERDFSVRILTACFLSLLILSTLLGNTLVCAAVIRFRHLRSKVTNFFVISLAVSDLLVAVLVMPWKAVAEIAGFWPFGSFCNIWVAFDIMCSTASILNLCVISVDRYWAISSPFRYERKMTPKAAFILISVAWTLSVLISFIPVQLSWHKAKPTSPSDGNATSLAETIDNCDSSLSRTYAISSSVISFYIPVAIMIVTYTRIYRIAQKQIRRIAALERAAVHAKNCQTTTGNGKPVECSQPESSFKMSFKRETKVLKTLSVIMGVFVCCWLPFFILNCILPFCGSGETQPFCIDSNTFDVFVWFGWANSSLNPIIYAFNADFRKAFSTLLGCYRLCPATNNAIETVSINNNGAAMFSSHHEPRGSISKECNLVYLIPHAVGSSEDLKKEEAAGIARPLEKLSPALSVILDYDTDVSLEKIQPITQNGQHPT

outcome	SMILES
inactive	Cc1noc(C)c1CSc1ncnc2ccccc12
inactive	O=C(CC1SC(=NC2CCCCC2)NC1=O)Nc1ccccc1 (centres undefined)
inactive	C=CCn1c(=O)c2c(C)c(C)sc2n2c(Nc3ccc(OC)cc3)nnc12
inactive	COc1ccc(Cc2nnc(NC(=O)c3c(-c4ccccc4)noc3C)s2)cc1
inactive	N#CCSc1nc2c(sc(=S)n2Cc2ccco2)c(=O)n1-c1ccc(F)cc1
inactive	C/C(CCc1oc2ccccc2c1-c1ccc(C)o1)=N/O
inactive	CCOC(=O)N1CCN(S(=O)(=O)c2ccc3c(c2)CCN3C(=O)C2CCC2)CC1
inactive	COc1ccc(-c2coc3cc(O)ccc3c2=O)cc1OC
inactive	O=C(NCc1ccco1)c1cnn2c(C(F)(F)F)cc(-c3ccco3)nc12
inactive	COc1ccc(Cn2nnc3c(=O)[nH]c(C4CCCN(C(=O)c5ccccc5)C4)nc32)cc1 (centres undefined)
inactive	Cc1cc(-n2nc(C)cc2C)nc(NS(=O)(=O)c2ccccc2)n1
inactive	Cc1ccc(-n2c(SCC(=O)OC(C)C)nnc2-c2cnccn2)cc1
inactive	COc1ccc(-n2nc3ccccc3n2)cc1
inactive	Cc1sc2nc(C3CC3)nc(NCCNS(C)(=O)=O)c2c1C
inactive	Cc1nc2sc3c(c2c(=O)[nH]1)CCC3
inactive	CCn1c2ccccc2c2nnc(SCCCn3c(=O)[nH]c4ccccc43)nc21
inactive	Cc1cc(-c2ccccc2)c(C#N)c(SCC(N)=O)n1
inactive	CCOC(=O)C(C)Oc1cccc2c(=O)n(CC(=O)NCc3ccco3)ccc12 (centres undefined)
inactive	COc1ccc(-c2noc(COc3ccc4ccccc4c3Br)n2)cc1OC
inactive	O=C(CCCc1nc2ccccc2s1)N1CCN(S(=O)(=O)c2cccs2)CC1
inactive	COc1ccc(OC)c(C(=O)COC(=O)C2CC3CCCC(C2)C3=O)c1 (centres undefined)
inactive	CCn1c(SCc2cccnc2)nc2c1c(=O)n(C)c(=O)n2C

outcome	SMILES
inactive	O=C1COc2ccccc2N1Cc1ccccc1Cl
inactive	COc1ccccc1-c1nnc2n1N=C(C(C)(C)C)CS2
inactive	c1csc(-c2nn3c(Cn4nnc5ccccc54)nnc3s2)c1
inactive	CCn1c(SCC(=O)Nc2ccccc2N2CCCCC2)nc2c1c(=O)n(C)c(=O)n2C
inactive	CSc1nc2c(c(=O)n1-c1ccccc1)SCC2
inactive	Cc1cc(NC(=O)COc2nnc(-c3ccccc3)c3ccccc23)no1
inactive	CC(C)OC(=O)CSc1nnc(-c2cnccn2)n1-c1ccccc1
inactive	CCOC(=O)c1nc(-c2ccccc2)oc1N(C)C
inactive	COC(=O)c1cc(=O)n(Cc2ccco2)c(=Nc2ccc(F)c(Cl)c2)s1
inactive	CCCSc1nsc(SCCC)c1C(N)=O
inactive	C=CCc1c(C)nc(SC)nc1Nc1ccc(C(=O)O)cc1
inactive	CCC(C)Sc1nc2c(c(=O)n1C)SC(C)C2 (centres undefined)
inactive	CCc1nc2sc3ccccc3c(=O)c2c(=O)n1Cc1ccco1
inactive	COc1ccc(CCN2CCCn3c2nc2c3c(=O)n(Cc3ccccc3F)c(=O)n2C)cc1OC
inactive	COc1ccccc1CNC(=O)c1ccc(NS(=O)(=O)c2c(C)noc2C)cc1
inactive	Cn1cnc2c1c(=O)n(Cc1ccc(F)cc1Cl)c(=O)n2C
inactive	COc1ccc(S(=O)(=O)N2CCSC2c2ccc(OC)c(OC)c2)cc1 (centres undefined)
inactive	Cc1cc(SCC(=O)N2CCC(c3noc4ccc(F)cc34)CC2)nc2ccccc12
inactive	COC(=O)c1ccc(OCCn2cnc3ccccc3c2=O)cc1
inactive	CCOC(=O)C(O)(CCC(O)(C(=O)OCC)C(=O)OCC)C(=O)OCC
inactive	CCOCCOC(=O)C1=C(C)Nc2ccc(C)cc2S1
inactive	CCC(C)Nc1nc(OC)nc(N(C)C#N)n1 (centres undefined)
